Experimental data reported in US8501713B2, “Drug combinations for the treatment of duchenne muscular dystrophy” (Summit Corporation PLC, priority 2007, dated 2013).

Tested on: Utrophin A promoter linked to a luciferase reporter gene
Assay: Luciferase reporter assay (murine H2K cells)
Format: cell-based
Conditions: Mus musculus, H2K mdx, luciferase level relative to control; H2K/mdx/Utro A reporter cells; compound 10 μM final concentration; read-out: Activity
How it was run: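 Compound at 10 μM final was applied for 48 hrs to plated H2K mdx myoblasts (33° C, 10% CO2, interferon-containing medium) bearing a luciferase gene under the utrophin A promoter. Luminescence from lysed cells served as read-out.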

O=[N+]([O-])c1ccc2nc(-c3ccccc3O)[nH]c2c1 [Example 106, 2-(6-nitro-1H-benzo[d]imidazol-2-yl)phenol]
activity at 10 µM: < 200%

O=C(O)c1ccc2oc(-c3ccccc3)nc2c1 [Example 107, 2-phenylbenzo[d]oxazole-5-carboxylic acid]
activity at 10 µM: 301 to 400%

CCCc1ccc(-c2nc3cc(C(=O)O)ccc3o2)cc1 [Example 108, 2-(4-propylphenyl)benzo[d]oxazole-5-carboxylic acid]
activity at 10 µM: < 200%

CCCc1ccc(-c2nc3ccc(C(=O)O)cc3o2)cc1 [Example 109, 2-(4-propylphenyl)benzo[d]oxazole-6-carboxylic acid]
activity at 10 µM: < 200%

CCCc1ccc(-c2nc3ccc(-c4nc5ccc(C(=O)O)cc5o4)cc3o2)cc1 [Example 110, 2′-(4-propylphenyl)-2,6′-bibenzo[d]oxazole-6-carboxylic acid]
activity at 10 µM: < 200%

Clc1ccc2oc(-c3ccccc3)nc2c1 [Example 111, 5-chloro-2-phenylbenzo[d]oxazole]
activity at 10 µM: 201 to 300%

Clc1ccc2nc(-c3ccccc3)oc2c1 [Example 112, 6-chloro-2-phenylbenzo[d]oxazole]
activity at 10 µM: < 200%

Cc1ccc(-c2nc3cc(NC(=O)c4cccnc4)ccc3o2)cc1 [Example 113, N-(2-p-tolylbenzo[d]oxazol-5-yl)nicotinamide]
activity at 10 µM: < 200%

Cc1ccc(-c2nc3cc(NC(=O)c4ccncc4)ccc3o2)cc1 [Example 114, N-(2-p-tolylbenzo[d]oxazol-5-yl)isonicotinamide]
activity at 10 µM: < 200%

CCC(=O)Nc1ccc2oc(-c3ccc(C)cc3)nc2c1 [Example 115, N-(2-p-tolylbenzo[d]oxazol-5-yl)propionamide]
activity at 10 µM: > 401%

CCCC(=O)Nc1ccc2oc(-c3ccc(C)cc3)nc2c1 [Example 116, N-(2-p-tolylbenzo[d]oxazol-5-yl)butyramide]
activity at 10 µM: > 401%

CCCCC(=O)Nc1ccc2oc(-c3ccc(C)cc3)nc2c1 [Example 117, N-(2-p-tolylbenzo[d]oxazol-5-yl)pentanamide]
activity at 10 µM: 301 to 400%

Cc1ccc(-c2nc3cc(NC(=O)C(C)C)ccc3o2)cc1 [Example 118, N-(2-p-tolylbenzo[d]oxazol-5-yl)isobutyramide]
activity at 10 µM: 201 to 300%

Cc1ccc(-c2nc3cc(NC(=O)c4ccco4)ccc3o2)cc1 [Example 119, N-(2-p-tolylbenzo[d]oxazol-5-yl)furan-2-carboxamide]
activity at 10 µM: < 200%

Cc1ccc(-c2nc3cc(NC(=O)c4cccs4)ccc3o2)cc1 [Example 120, N-(2-p-tolylbenzo[d]oxazol-5-yl)thiophene-2-carboxamide]
activity at 10 µM: 201 to 300%

O=C(Nc1ccc2oc(-c3ccc(C(F)(F)F)cc3)nc2c1)c1cccnc1 [Example 121, N-(2-(4-(trifluoromethyl)phenyl)benzo[d]oxazol-5-yl)nicotinamide]
activity at 10 µM: < 200%

O=C(Nc1ccc2oc(-c3ccc(C(F)(F)F)cc3)nc2c1)c1ccncc1 [Example 122, N-(2-(4-(trifluoromethyl)phenyl)benzo[d]oxazol-5-yl)isonicotinamide]
activity at 10 µM: < 200%

CC(=O)Nc1ccc2oc(-c3ccc(C(F)(F)F)cc3)nc2c1 [Example 123, N-(2-(4-(trifluoromethyl)phenyl)benzo[d]oxazol-5-yl)acetamide]
activity at 10 µM: 201 to 300%

CCC(=O)Nc1ccc2oc(-c3ccc(C(F)(F)F)cc3)nc2c1 [Example 124, N-(2-(4-(trifluoromethyl)phenyl)benzo[d]oxazol-5-yl)propionamide]
activity at 10 µM: < 200%

CCCC(=O)Nc1ccc2oc(-c3ccc(C(F)(F)F)cc3)nc2c1 [Example 125, N-(2-(4-(trifluoromethyl)phenyl)benzo[d]oxazol-5-yl)butyramide]
activity at 10 µM: < 200%

CCCCC(=O)Nc1ccc2oc(-c3ccc(C(F)(F)F)cc3)nc2c1 [Example 126, N-(2-(4-(trifluoromethyl)phenyl)benzo[d]oxazol-5-yl)pentanamide]
activity at 10 µM: < 200%

CC(C)C(=O)Nc1ccc2oc(-c3ccc(C(F)(F)F)cc3)nc2c1 [Example 127, N-(2-(4-(trifluoromethyl)phenyl)benzo[d]oxazol-5-yl)isobutyramide]
activity at 10 µM: < 200%

O=C(Nc1ccc2oc(-c3ccc(C(F)(F)F)cc3)nc2c1)c1ccco1 [Example 128, N-(2-(4-(trifluoromethyl)phenyl)benzo[d]oxazol-5-yl)furan-2-carboxamide]
activity at 10 µM: < 200%

CC(C)(C)c1ccc2oc(-c3ccccc3)nc2c1 [Example 129, 5-tert-butyl-2-phenylbenzo[d]oxazole]
activity at 10 µM: > 401%

O=[N+]([O-])c1ccc2nc(-c3ccccc3)oc2c1 [Example 130, 6-nitro-2-phenylbenzo[d]oxazole]
activity at 10 µM: 201 to 300%

CCN(CC)c1ccc(-c2nc3cc(Cl)ccc3o2)cc1 [Example 131, 4-(5-chlorobenzo[d]oxazol-2-yl)-N,N-diethylaniline]
activity at 10 µM: 301 to 400%

CCN(CC)c1ccc(-c2nc3ccc(Cl)cc3o2)cc1 [Example 132, 4-(6-chlorobenzo[d]oxazol-2-yl)-N,N-diethylaniline]
activity at 10 µM: > 401%

Nc1ccc2[nH]c(-c3ccccc3O)nc2c1 [Example 133, 2-(5-amino-1H-benzo[d]imidazol-2-yl)phenol]
activity at 10 µM: < 200%

COc1ccc(-c2nc3cc(NC(=O)c4ccncc4)ccc3o2)cc1 [Example 134, N-(2-(4-methoxyphenyl)benzo[d]oxazol-5-yl)isonicotinamide]
activity at 10 µM: < 200%

COc1ccc(-c2nc3cc(NC(C)=O)ccc3o2)cc1 [Example 135, N-(2-(4-methoxyphenyl)benzo[d]oxazol-5-yl)acetamide]
activity at 10 µM: 301 to 400%

CCC(=O)Nc1ccc2oc(-c3ccc(OC)cc3)nc2c1 [Example 136, N-(2-(4-methoxyphenyl)benzo[d]oxazol-5-yl)propionamide]
activity at 10 µM: 301 to 400%

CCCC(=O)Nc1ccc2oc(-c3ccc(OC)cc3)nc2c1 [Example 137, N-(2-(4-methoxyphenyl)benzo[d]oxazol-5-yl)butyramide]
activity at 10 µM: 201 to 300%

CCCCC(=O)Nc1ccc2oc(-c3ccc(OC)cc3)nc2c1 [Example 138, N-(2-(4-methoxyphenyl)benzo[d]oxazol-5-yl)pentanamide]
activity at 10 µM: < 200%

COc1ccc(-c2nc3cc(NC(=O)C(C)C)ccc3o2)cc1 [Example 139, N-(2-(4-methoxyphenyl)benzo[d]oxazol-5-yl)isobutyramide]
activity at 10 µM: 201 to 300%

COc1ccc(-c2nc3cc(NC(=O)c4ccco4)ccc3o2)cc1 [Example 140, N-(2-(4-methoxyphenyl)benzo[d]oxazol-5-yl)furan-2-carboxamide]
activity at 10 µM: < 200%

COc1ccc(-c2nc3cc(NC(=O)c4cccs4)ccc3o2)cc1 [Example 141, N-(2-(4-methoxyphenyl)benzo[d]oxazol-5-yl)thiophene-2-carboxamide]
activity at 10 µM: < 200%

CCN(CC)c1ccc(-c2nc3cc(C(C)(C)C)ccc3o2)cc1 [Example 142, 4-(5-tert-butylbenzo[d]oxazol-2-yl)-N,N-diethylaniline]
activity at 10 µM: 201 to 300%

CCN(CC)c1ccc(-c2nc3ccccc3o2)cc1 [Example 143, 4-(benzo[d]oxazol-2-yl)-N,N-diethylaniline]
activity at 10 µM: 201 to 300%

CCN(CC)c1ccc(-c2nc3cc(S(=O)(=O)CC)ccc3o2)cc1 [Example 144, N,N-diethyl-4-(5-(ethylsulfonyl)benzo[d]oxazol-2-yl)aniline]
activity at 10 µM: < 200%

CCN(CC)c1ccc(-c2nc3cc(-c4ccccc4)ccc3o2)cc1 [Example 145, N,N-diethyl-4-(5-phenylbenzo[d]oxazol-2-yl)aniline]
activity at 10 µM: < 200%

CCN(CC)c1ccc(-c2nc3c(ccc4ccccc43)o2)cc1 [Example 146, N,N-diethyl-4-(naphtho[1,2-d]oxazol-2-yl)aniline]
activity at 10 µM: 201 to 300%

c1ccc(-c2nc3ccccc3o2)nc1 [Example 147, 2-(pyridin-2-yl)benzo[d]oxazole]
activity at 10 µM: < 200%

CCC(=O)Nc1ccc2nn(-c3ccc(Cl)cc3)nc2c1 [Example 148, N-(2-(4-chlorophenyl)-2H-benzo[d][1,2,3]triazol-5-yl)propionamide]
activity at 10 µM: > 401%

Nc1ccc2oc(-c3ccc(N4CCCC4)cc3)nc2c1 [Example 149, 2-(4-(pyrrolidin-1-yl)phenyl)benzo[d]oxazol-5-amine]
activity at 10 µM: 201 to 300%

Nc1ccc2oc(-c3ccc(N4CCCCC4)cc3)nc2c1 [Example 150, 2-(4-(piperidin-1-yl)phenyl)benzo[d]oxazol-5-amine]
activity at 10 µM: 201 to 300%

CN1CCN(c2ccc(-c3nc4cc(N)ccc4o3)cc2)CC1 [Example 151, 2-(4-(4-methylpiperazin-1-yl)phenyl)benzo[d]oxazol-5-amine]
activity at 10 µM: 201 to 300%

CCN(CC)c1ccc(-c2nc3cc(C(=O)O)ccc3o2)cc1 [Example 152, 2-(4-(diethylamino)phenyl)benzo[d]oxazole-5-carboxylic acid]
activity at 10 µM: < 200%

O=[N+]([O-])c1cnc2oc(-c3ccccc3)nc2c1 [Example 153, 6-nitro-2-phenyloxazolo[5,4-b]pyridine]
activity at 10 µM: < 200%

CCCc1nc2cc(N)ccc2o1 [Example 154, 2-propylbenzo[d]oxazol-5-amine]
activity at 10 µM: < 200%

Nc1ccc2nc(-c3ccccc3)oc2c1 [Example 155, 2-phenylbenzo[d]oxazol-6-amine]
activity at 10 µM: 301 to 400%

c1ccc(CNc2ccc3oc(-c4ccccc4)nc3c2)cc1 [Example 156, N-benzyl-2-phenylbenzo[d]oxazol-5-amine]
activity at 10 µM: 301 to 400%

Cc1ccc(-c2nc3cccnc3o2)cc1 [Example 157, 2-p-tolyloxazolo[5,4-b]pyridine]
activity at 10 µM: 301 to 400%

Cc1ccc(-c2nc3ncccc3o2)cc1 [Example 158, 2-p-tolyloxazolo[4,5-b]pyridine]
activity at 10 µM: < 200%

Nc1ccc2oc(-c3ccc(N4CCOCC4)cc3)nc2c1 [Example 159, 2-(4-morpholinophenyl)benzo[d]oxazol-5-amine]
activity at 10 µM: < 200%
